Values of other authors, collected in patent publication US6316027A, “Fast-dissolving dosage forms for dopamine agonists” (priority 1995, dated 2001).

Assays:
[1] = acidic environment
[2] = not given; remark: listed apart in the source
[3] = not given; remark: listed apart in the source
[4] = sub-lingual tablets, prolonged use

SMILES	nasal side effects (intranasal)	presystemic metabolism (first pass effect) (oral tablets, small intestine and/or liver)	blood urea nitrogen (oral, long-term studies, stopped after 7-10 days)	buccal mucosal ulceration, share of patients [4]	stomatitis [4]	dopamine agonist side effects (subcutaneous)	chemical stability [1]	fraction entering the brain ([2]; in vivo)	absorption from the small intestine ([2]; oral)	incidence of malignant melanoma ([3]; patients undergoing treatment with levodopa)	involuntary movements on prolonged use ([3]; prolonged use)
CN1CCc2cccc3c2[C@H]1Cc1ccc(O)c(O)c1-3 [apomorphine, 5,6,6a,7-tetrahydro-6-methyl-4H-dibenzo quinoline-10; 11-diol]	transient nasal blockage, burning sensation and swollen nose and lips	extensive presystemic metabolism	unexplained rises in blood urea nitrogen	half the patients	severe stomatitis	nausea and vomiting	optimal chemical stability in an acidic environment				
N[C@@H](Cc1ccc(O)c(O)c1)C(=O)O [levodopa]								less than 1%	well absorbed from the small intestine	increased incidence of malignant melanoma	involuntary choreiform movements
